Assay results taken from PubChem BioAssay AID2060626 (Molecular Pharmacology Branch, DTP, NCI, 2025).

Tested on: 168753-222-R-J1-PDC complex spheroid viability
Experiment: Anticancer human tumor 168753-222-R-J1-PDC patient-derived bladder carcinoma cell line growth inhibition [CLK]
Settings: for IC50: curve of first compound; for viability, T/C: stronger effect = lower value
Procedure, shortened: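 Multi-cell-type spheroids combined patient-derived tumor cells with HUVEC endothelial cells and human mesenchymal stem cells. Paired agents were dosed in half-log steps down from about clinical Cmax, or from 10 microM where Cmax was unknown.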

[1] = second compound 0.0316 µM, first compound 0.0316 µM
[2] = second compound 0.0316 µM, first compound 0.1 µM
[3] = second compound 0.0316 µM, first compound 0.316 µM
[4] = second compound 0.0316 µM, first compound 1 µM
[5] = second compound 0.0316 µM, first compound 3.16 µM
[6] = second compound 0.0316 µM, first compound 10 µM
[7] = second compound 0.1 µM, first compound 0.0316 µM
[8] = second compound 0.1 µM, first compound 0.1 µM
[9] = second compound 0.1 µM, first compound 0.316 µM
[10] = second compound 0.1 µM, first compound 1 µM
[11] = second compound 0.1 µM, first compound 3.16 µM
[12] = second compound 0.1 µM, first compound 10 µM
[13] = second compound 0.316 µM, first compound 0.0316 µM
[14] = second compound 0.316 µM, first compound 0.1 µM
[15] = second compound 0.316 µM, first compound 0.316 µM
[16] = second compound 0.316 µM, first compound 1 µM
[17] = second compound 0.316 µM, first compound 3.16 µM
[18] = second compound 0.316 µM, first compound 10 µM
[19] = second compound 1 µM, first compound 0.0316 µM
[20] = second compound 1 µM, first compound 0.1 µM
[21] = second compound 1 µM, first compound 0.316 µM
[22] = second compound 1 µM, first compound 1 µM
[23] = second compound 1 µM, first compound 3.16 µM
[24] = second compound 1 µM, first compound 10 µM
[25] = second compound 3.16 µM, first compound 0.0316 µM
[26] = second compound 3.16 µM, first compound 0.1 µM
[27] = second compound 3.16 µM, first compound 0.316 µM
[28] = second compound 3.16 µM, first compound 1 µM
[29] = second compound 3.16 µM, first compound 3.16 µM
[30] = second compound 3.16 µM, first compound 10 µM
[31] = second compound 10 µM, first compound 0.0316 µM
[32] = second compound 10 µM, first compound 0.1 µM
[33] = second compound 10 µM, first compound 0.316 µM
[34] = second compound 10 µM, first compound 1 µM
[35] = second compound 10 µM, first compound 3.16 µM
[36] = second compound 10 µM, first compound 10 µM
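Also: viability measured after seven days of drug exposure.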
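For viability, T/C in this document: luminescence signal used as surrogate for viable cell amount; 100% = DMSO vehicle control wells.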

Nc1ccccc1NC(=O)c1ccc(CNC(=O)OCc2cccnc2)cc1 + CNC(=O)c1ccc(Nc2nc(OC3CCCC3)c3c(-c4ccc5nc(C)oc5c4)c[nH]c3n2)c(OC)c1
IC50 (second compound 0.0316 µM): 5880 nM | IC50 (second compound 0.1 µM): 5460 nM | IC50 (second compound 0.316 µM): 4110 nM | IC50 (second compound 1 µM): < 31.6 nM | IC50 (second compound 3.16 µM): < 31.6 nM | IC50 (second compound 10 µM): < 31.6 nM | viability, T/C [1]: 99.1% | viability, T/C [2]: 101% | viability, T/C [3]: 90.6% | viability, T/C [4]: 90.6% | viability, T/C [5]: 84.4% | viability, T/C [6]: 21.6% | viability, T/C [7]: 98.8% | viability, T/C [8]: 84.8% | viability, T/C [9]: 85.8% | viability, T/C [10]: 82.9% | viability, T/C [11]: 81.2% | viability, T/C [12]: 15.4% | viability, T/C [13]: 80% | viability, T/C [14]: 68.7% | viability, T/C [15]: 62.2% | viability, T/C [16]: 78.3% | viability, T/C [17]: 63.1% | viability, T/C [18]: 6.28% | viability, T/C [19]: 33.9% | viability, T/C [20]: 39% | viability, T/C [21]: 36.5% | viability, T/C [22]: 41.4% | viability, T/C [23]: 44.7% | viability, T/C [24]: 4.99% | viability, T/C [25]: 27.1% | viability, T/C [26]: 22.3% | viability, T/C [27]: 29.8% | viability, T/C [28]: 41.7% | viability, T/C [29]: 25.7% | viability, T/C [30]: 3.07% | viability, T/C [31]: 19.5% | viability, T/C [32]: 21% | viability, T/C [33]: 28.1% | viability, T/C [34]: 27.5% | viability, T/C [35]: 21.1% | viability, T/C [36]: 0.71%

O=c1[nH]cc(F)c(=O)[nH]1 + CNC(=O)c1ccc(Nc2nc(OC3CCCC3)c3c(-c4ccc5nc(C)oc5c4)c[nH]c3n2)c(OC)c1
IC50 (second compound 0.0316 µM): > 10000 nM | IC50 (second compound 0.1 µM): > 10000 nM | IC50 (second compound 0.316 µM): > 10000 nM | IC50 (second compound 1 µM): < 31.6 nM | IC50 (second compound 3.16 µM): < 31.6 nM | IC50 (second compound 10 µM): < 31.6 nM | viability, T/C [1]: 110% | viability, T/C [2]: 113% | viability, T/C [3]: 106% | viability, T/C [4]: 108% | viability, T/C [5]: 92.3% | viability, T/C [6]: 98.5% | viability, T/C [7]: 92.3% | viability, T/C [8]: 94.8% | viability, T/C [9]: 86.8% | viability, T/C [10]: 115% | viability, T/C [11]: 90.4% | viability, T/C [12]: 85.1% | viability, T/C [13]: 83.6% | viability, T/C [14]: 77.3% | viability, T/C [15]: 66.5% | viability, T/C [16]: 73.4% | viability, T/C [17]: 68.8% | viability, T/C [18]: 67% | viability, T/C [19]: 42.1% | viability, T/C [20]: 36% | viability, T/C [21]: 27.9% | viability, T/C [22]: 28.2% | viability, T/C [23]: 31.7% | viability, T/C [24]: 27.7% | viability, T/C [25]: 20.3% | viability, T/C [26]: 18.1% | viability, T/C [27]: 19.9% | viability, T/C [28]: 15.6% | viability, T/C [29]: 18.4% | viability, T/C [30]: 24.6% | viability, T/C [31]: 17.1% | viability, T/C [32]: 17.1% | viability, T/C [33]: 18.7% | viability, T/C [34]: 15.7% | viability, T/C [35]: 18.6% | viability, T/C [36]: 23.5%

Nc1ccccc1NC(=O)c1ccc(CNC(=O)OCc2cccnc2)cc1 + CN1CCN(c2cc(C(=O)Nc3cc4cc(-c5cnn(C)c5)ccc4cn3)ccn2)CC1
IC50 (second compound 0.0316 µM): 554 nM | IC50 (second compound 0.1 µM): < 31.6 nM | IC50 (second compound 0.316 µM): < 31.6 nM | IC50 (second compound 1 µM): < 31.6 nM | IC50 (second compound 3.16 µM): < 31.6 nM | IC50 (second compound 10 µM): < 31.6 nM | viability, T/C [1]: 96.5% | viability, T/C [2]: 58.7% | viability, T/C [3]: 54.6% | viability, T/C [4]: 54% | viability, T/C [5]: 24.3% | viability, T/C [6]: 7.33% | viability, T/C [7]: 50% | viability, T/C [8]: 41.3% | viability, T/C [9]: 38.2% | viability, T/C [10]: 43.9% | viability, T/C [11]: 22.6% | viability, T/C [12]: 0.13% | viability, T/C [13]: 9.09% | viability, T/C [14]: 8.55% | viability, T/C [15]: 7.31% | viability, T/C [16]: 7.09% | viability, T/C [17]: 0.22% | viability, T/C [18]: 0.07% | viability, T/C [19]: 0.13% | viability, T/C [20]: 0.23% | viability, T/C [21]: 0.08% | viability, T/C [22]: 0.05% | viability, T/C [23]: 0.16% | viability, T/C [24]: 0.89% | viability, T/C [25]: 0.79% | viability, T/C [26]: 0.08% | viability, T/C [27]: 0.09% | viability, T/C [28]: 0.06% | viability, T/C [29]: 0.71% | viability, T/C [30]: 0.95% | viability, T/C [31]: 0.06% | viability, T/C [32]: 0.23% | viability, T/C [33]: 0.32% | viability, T/C [34]: 0.1% | viability, T/C [35]: 0.24% | viability, T/C [36]: 1.08%

CC(Nc1ccc2c(c1)OCCn1cc(N3C(=O)OCC3C(F)F)nc1-2)C(N)=O (stereo not drawn) + CNC(=O)c1ccc(Nc2nc(OC3CCCC3)c3c(-c4ccc5nc(C)oc5c4)c[nH]c3n2)c(OC)c1
IC50 (second compound 0.0316 µM): 161 nM | IC50 (second compound 0.1 µM): 133 nM | IC50 (second compound 0.316 µM): 45.8 nM | IC50 (second compound 1 µM): < 31.6 nM | IC50 (second compound 3.16 µM): < 31.6 nM | IC50 (second compound 10 µM): < 31.6 nM | viability, T/C [1]: 93.1% | viability, T/C [2]: 71% | viability, T/C [3]: 20.2% | viability, T/C [4]: 15.5% | viability, T/C [5]: 13.3% | viability, T/C [6]: 13% | viability, T/C [7]: 83.7% | viability, T/C [8]: 60.5% | viability, T/C [9]: 18.3% | viability, T/C [10]: 14.3% | viability, T/C [11]: 13.5% | viability, T/C [12]: 11.6% | viability, T/C [13]: 62.5% | viability, T/C [14]: 23.5% | viability, T/C [15]: 15% | viability, T/C [16]: 9.68% | viability, T/C [17]: 9.36% | viability, T/C [18]: 9.19% | viability, T/C [19]: 24.3% | viability, T/C [20]: 13.5% | viability, T/C [21]: 6.89% | viability, T/C [22]: 2.64% | viability, T/C [23]: 1.07% | viability, T/C [24]: 2.28% | viability, T/C [25]: 14.9% | viability, T/C [26]: 10.1% | viability, T/C [27]: 3.74% | viability, T/C [28]: 0.82% | viability, T/C [29]: 1.82% | viability, T/C [30]: 3.99% | viability, T/C [31]: 12.8% | viability, T/C [32]: 9.3% | viability, T/C [33]: 3.4% | viability, T/C [34]: 0.76% | viability, T/C [35]: 0.78% | viability, T/C [36]: 1.14%
